Measured values from paper PMC11509018, “Evaluation of the Role of Tanshinone I in an In Vitro System of Charcot-Marie-Tooth Disease Type 2N” (International Journal of Molecular Sciences, 2024).

Target: T1, AlaRS N71Y binding to Nrp1 (Homo sapiens, UniProt P49588, N71Y)
T1 construct: expressed in transfected cells
T1 sequence (P49588 1-968 N71Y): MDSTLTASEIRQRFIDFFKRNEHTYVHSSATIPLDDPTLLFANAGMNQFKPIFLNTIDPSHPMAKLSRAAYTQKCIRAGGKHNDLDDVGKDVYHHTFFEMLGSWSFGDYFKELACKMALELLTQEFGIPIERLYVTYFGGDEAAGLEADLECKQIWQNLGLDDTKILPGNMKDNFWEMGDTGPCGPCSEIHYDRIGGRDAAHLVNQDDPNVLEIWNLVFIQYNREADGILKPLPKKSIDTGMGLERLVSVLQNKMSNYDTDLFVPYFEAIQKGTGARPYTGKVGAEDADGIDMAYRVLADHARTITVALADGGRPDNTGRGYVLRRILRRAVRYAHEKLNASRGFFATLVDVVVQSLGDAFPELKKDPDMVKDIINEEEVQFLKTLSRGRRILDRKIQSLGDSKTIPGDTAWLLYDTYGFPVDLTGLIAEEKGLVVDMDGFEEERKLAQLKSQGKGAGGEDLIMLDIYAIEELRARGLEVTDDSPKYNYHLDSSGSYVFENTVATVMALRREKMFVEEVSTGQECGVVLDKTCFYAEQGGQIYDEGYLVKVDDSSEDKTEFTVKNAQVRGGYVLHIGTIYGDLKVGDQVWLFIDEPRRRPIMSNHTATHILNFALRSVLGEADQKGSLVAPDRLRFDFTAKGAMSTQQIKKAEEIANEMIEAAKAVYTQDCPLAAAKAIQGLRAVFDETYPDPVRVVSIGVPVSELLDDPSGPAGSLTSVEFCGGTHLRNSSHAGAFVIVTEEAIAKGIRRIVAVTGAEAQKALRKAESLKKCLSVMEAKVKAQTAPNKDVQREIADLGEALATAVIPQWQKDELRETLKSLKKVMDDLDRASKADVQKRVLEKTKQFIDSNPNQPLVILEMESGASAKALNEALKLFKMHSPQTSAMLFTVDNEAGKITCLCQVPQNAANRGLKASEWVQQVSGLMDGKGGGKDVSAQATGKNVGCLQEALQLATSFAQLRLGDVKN
Assay: Co-IP of HA-AlaRS mutant with Nrp1 in transfected cells
Type: cell-based
Settings: 20 µM Tanshinone I for 24 h, ImageJ, average of three repeats

Cc1coc2c1C(=O)C(=O)c1c-2ccc2c(C)cccc12 [Tanshinone I]
Mean density band (N71Y), relative quantification of AlaRS mutant immunoprecipitated: 0.60
